Molecular target: T1, Full length SHP2 enzyme (Homo sapiens, UniProt Q06124)
T1 construct: Full length SHP2 enzyme (diluted to 0.1 nM in reaction buffer)
T1 sequence (Q06124 1-593): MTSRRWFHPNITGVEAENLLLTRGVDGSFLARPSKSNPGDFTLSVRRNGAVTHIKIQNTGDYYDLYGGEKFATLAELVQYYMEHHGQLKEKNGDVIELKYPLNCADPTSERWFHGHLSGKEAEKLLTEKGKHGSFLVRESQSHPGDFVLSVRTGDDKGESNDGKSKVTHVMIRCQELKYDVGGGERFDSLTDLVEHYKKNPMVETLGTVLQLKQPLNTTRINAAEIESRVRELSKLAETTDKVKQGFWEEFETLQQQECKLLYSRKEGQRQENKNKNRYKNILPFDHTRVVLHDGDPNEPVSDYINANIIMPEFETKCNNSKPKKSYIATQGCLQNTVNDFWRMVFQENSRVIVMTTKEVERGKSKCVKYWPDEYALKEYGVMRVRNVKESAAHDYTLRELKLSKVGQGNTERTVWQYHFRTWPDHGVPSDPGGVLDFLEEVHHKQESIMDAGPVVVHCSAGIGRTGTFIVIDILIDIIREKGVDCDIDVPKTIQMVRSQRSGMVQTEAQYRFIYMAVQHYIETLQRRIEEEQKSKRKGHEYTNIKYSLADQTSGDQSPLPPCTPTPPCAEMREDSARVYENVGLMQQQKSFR
Experiment: SHP2 phosphatase assay
Format: biochemical
Details: 1 μM IRS-1 peptide, DiFMUP substrate
Description: IC50 values were determined at room temperature in 384-well black polystyrene plate, using a final reaction volume of 15 μL and the following assay buffer conditions: 60 mM Hepes (pH=7.2), 75 mM NaCl, 75 mM KCl, and 1 mM EDTA, 0.05% P-20, 5 mM dithiothreitol (DTT). Full length SHP2 enzyme (diluted to 0.1 nM in reaction buffer) were co-incubated with 1 μM IRS-1 peptide and 0.01 nM to 10 μM compounds of the disclosure for 60 min. The surrogate substrate DiFMUP (5 μL, 100 μM) was added, and incubated at rt for 60 min. The reaction was then quenched by the addition of 5 μL of a 40 μM solution of bpV(Phen). The fluorescence signal was monitored using a microplate reader (Envision, Perkin-Elmer) using excitation and emission wavelengths of 360 nm and 450 nm, respectively. The inhibitor dose-response curves were analyzed using normalized IC50 regression curve fitting with control-based normalization.

Q: How did the IC50 turn out when `N[C@@H]1c2ccccc2OC12CCN(c1ncc(Sc3ccnc(Cl)c3Cl)[nH]c1=O)CC2` [Example 123, (R)-3-(3-amino-3H-spiro[benzofuran-2,4′-piperidin]-1′-yl)-6-((2,3-dichloropyridin-4-yl)thio)pyrazin-2(1H)-one] was run?
A: ≤ 50 nM

Q: `C[C@@H]1OCC2(CCN(c3ncc(Sc4ccnc(N)c4Cl)nc3O)CC2)[C@@H]1N` [Example 77, 6-((2-amino-3-chloropyridin-4-yl)thio)-3-((3S,4S)-4-amino-3-methyl-2-oxa-8-azaspiro[4.5]decan-8-yl)pyrazin-2(1H)-one] was tested. Which IC50 did it give?
A: ≤ 50 nM

Q: Which IC50 does the source give for `Nc1nccc(Sc2cnc(N3CCC4(CCC[C@@H]4N)CC3)c(=O)[nH]2)c1Cl` [Example 133, (S)-6-((2-amino-3-chloropyridin-4-yl)thio)-3-(1-amino-8-azaspiro[4.5]decan-8-yl)pyrazin-2(1H)-one] here?
A: ≤ 50 nM

Q: `CC1(CN)CCN(c2ncc(Sc3cccc(NC(=O)c4c(O)nc5[nH]ccn5c4=O)c3Cl)[nH]c2=O)CC1` [Example 32, N-(3-((5-(4-(aminomethyl)-4-methylpiperidin-1-yl)-6-oxo-1,6-dihydropyrazin-2-yl)thio)-2-chlorophenyl)-7-hydroxy-5-oxo-1,5-dihydroimidazo[1,2-a]pyrimidine-6-carboxamide] was tested. Which IC50 did it give?
A: ≤ 50 nM

Q: How did the IC50 turn out when `N[C@H]1CCCC12CCN(c1ncc(Sc3ccnc(Cl)c3Cl)[nH]c1=O)CC2` [Example 135, (S)-3-(1-amino-8-azaspiro[4.5]decan-8-yl)-6-((2,3-dichloropyridin-4-yl)thio)pyrazin-2(1H)-one] was run?
A: ≤ 50 nM

Q: Which IC50 does the source give for `N[C@@H]1c2ccccc2OC12CCN(c1ncc(Sc3cccc(Cl)c3Cl)[nH]c1=O)CC2` [Example 87, (R)-3-(3-amino-3H-spiro[benzofuran-2,4′-piperidin]-1′-yl)-6-((2,3-dichlorophenyl)thio)pyrazin-2 (1H)-one] here?
A: ≤ 50 nM

Q: Which IC50 does the source give for `CC1(CN)CCN(c2ncc(Sc3cccc(NC(=O)c4c(O)nc5n(c4=O)CCCC5)c3Cl)[nH]c2=O)CC1` [Example 33, N-(3-((5-(4-(aminomethyl)-4-methylpiperidin-1-yl)-6-oxo-1,6-dihydropyrazin-2-yl)thio)-2-chlorophenyl)-2-hydroxy-4-oxo-6,7,8,9-tetrahydro-4H-pyrido [1,2-a]pyrimidine-3-carboxamide] here?
A: ≤ 50 nM

Q: For `Nc1nccc(Sc2cnc(N3CCC4(CC3)Cc3sc(Cl)nc3C4N)c(=O)[nH]2)c1Cl` (stereo not shown) [Example 117, 3-(4-amino-2-chloro-4,6-dihydrospiro[cyclopenta[d]thiazole-5,4′-piperidin]-1′-yl)-6-((2-amino-3-chloropyridin-4-yl)thio)pyrazin-2(1H)-one], which IC50 is on record?
A: ≤ 50 nM

Q: `NC1CCCC(n2ccc(-c3cccc(Cl)c3Cl)cc2=O)C1` (stereo not shown) [Example 74, 1-(3-aminocyclohexyl)-4-(2,3-dichlorophenyl)pyridin-2(1H)-one] was tested. Which IC50 did it give?
A: ≤ 50 nM

Q: For `NC1C2CC2CC12CCN(c1ncc(Sc3cccc(Cl)c3Cl)[nH]c1=O)CC2` (stereo not shown) [Example 13, 3-(2-aminospiro[bicyclo[3.1.0]hexane-3,4′-piperidin]-1′-yl)-6-((2,3-dichlorophenyl)thio)pyrazin-2 (1H)-one], which IC50 is on record?
A: ≤ 50 nM

Q: For `CC1(CN)CCN(c2ncc(Sc3cccc(NC(=O)c4c(O)nc5cnccn5c4=O)c3Cl)[nH]c2=O)CC1` [Example 30, N-(3-((5-(4-(aminomethyl)-4-methylpiperidin-1-yl)-6-oxo-1,6-dihydropyrazin-2-yl)thio)-2-chlorophenyl)-2-hydroxy-4-oxo-4H-pyrazino[1,2-a]pyrimidine-3-carboxamide], which IC50 is on record?
A: ≤ 50 nM

Q: Which IC50 does the source give for `C[C@@H]1OCC2(CCN(c3ncc(Sc4cccc(N)c4F)[nH]c3=O)CC2)[C@@H]1N` [Example 126, 6-((3-amino-2-fluorophenyl)thio)-3-((3S,4S)-4-amino-3-methyl-2-oxa-8-azaspiro[4.5]decan-8-yl)pyrazin-2(1H)-one] here?
A: ≤ 50 nM

Q: How did the IC50 turn out when `C[C@@H]1OCC2(CCN(c3ncc(Sc4ccncc4Cl)[nH]c3=O)CC2)[C@@H]1N` [Example 128, 3-((3S,4S)-4-amino-3-methyl-2-oxa-8-azaspiro[4.5]decan-8-yl)-6-((3-chloropyridin-4-yl)thio) pyrazin-2(1H)-one] was run?
A: ≤ 50 nM

Q: `N[C@@H]1COCC12CCN(c1ncc(Sc3ccnc(Cl)c3Cl)[nH]c1=O)CC2` [Example 88, (S)-3-(4-amino-2-oxa-8-azaspiro[4.5]decan-8-yl)-6-((2,3-dichloropyridin-4-yl)thio)pyrazin-2(1H)-one] was tested. Which IC50 did it give?
A: ≤ 50 nM

Q: With `Nc1nccc(Sc2cnc(N3CCC4(CC3)Oc3ccccc3[C@H]4N)c(=O)[nH]2)c1Cl` [Example 124, (R)-6-((2-amino-3-chloropyridin-4-yl)thio)-3-(3-amino-3H-spiro[benzofuran-2,4′-piperidin]-1′-yl)pyrazin-2(1H)-one] as the molecule, how does the IC50 read?
A: ≤ 50 nM

Q: With `NC1C2CN(c3ncc(Sc4cccc(Cl)c4Cl)[nH]c3=O)CC12` (stereo not shown) [Example 86, 3-(6-amino-3-azabicyclo[3.1.0]hexan-3-yl)-6-((2,3-dichlorophenyl)thio)pyrazin-2(1H)-one] as the molecule, how does the IC50 read?
A: ≤ 50 nM

Q: For `CC1(CN)CCN(c2nc3[nH]nc(Oc4cccc(Cl)c4Cl)c3c(=O)[nH]2)CC1` [Example 35, 6-(4-(aminomethyl)-4-methylpiperidin-1-yl)-3-(2,3-dichlorophenoxy)-1,5-dihydro-4H-pyrazolo[3,4-d]pyrimidin-4-one], which IC50 is on record?
A: ≤ 50 nM

Q: `NC1c2nc(Cl)sc2CC12CCN(c1ncc(Sc3ccnc(Cl)c3Cl)[nH]c1=O)CC2` (stereo not shown) [Example 116, 3-(4-amino-2-chloro-4,6-dihydrospiro[cyclopenta[d]thiazole-5,4′-piperidin]-1′-yl)-6-((2,3-dichloropyridin-4-yl)thio)pyrazin-2(1H)-one] was tested. Which IC50 did it give?
A: ≤ 50 nM

Q: Which IC50 does the source give for `C[C@@H]1OCC2(CCN(c3ncc(Sc4ccnc(N)c4F)[nH]c3=O)CC2)[C@@H]1N` [Example 127, 6-((2-amino-3-fluoropyridin-4-yl)thio)-3-((3S,4S)-4-amino-3-methyl-2-oxa-8-azaspiro[4.5]decan-8-yl)pyrazin-2(1H)-one] here?
A: ≤ 1000 nM

Q: How did the IC50 turn out when `COc1cccc(Sc2cnc(N3CCC4(CC3)CO[C@@H](C)[C@H]4N)c(=O)[nH]2)c1Cl` [Example 79, 3-((3S,4S)-4-amino-3-methyl-2-oxa-8-azaspiro[4.5]decan-8-yl)-6-((2-chloro-3-methoxyphenyl)thio)pyrazin-2 (1H)-one] was run?
A: ≤ 50 nM

Q: `Nc1nccc(Sc2cnc(N3CCC4(CC3)Cc3scnc3C4N)c(=O)[nH]2)c1Cl` (stereo not shown) [Example 130, 6-((2-amino-3-chloropyridin-4-yl)thio)-3-(4-amino-4,6-dihydrospiro[cyclopenta[d]thiazole-5,4′-piperidin]-1′-yl)pyrazin-2(1H)-one] was tested. Which IC50 did it give?
A: ≤ 50 nM

Q: `COc1nccc(Sc2cnc(N3CCC4(CC3)CO[C@@H](C)[C@H]4N)c(=O)[nH]2)c1Cl` [Example 80, 3-((3S,4S)-4-amino-3-methyl-2-oxa-8-azaspiro[4.5]decan-8-yl)-6-((3-chloro-2-methoxypyridin-4-yl)thio)pyrazin-2(1H)-one] was tested. Which IC50 did it give?
A: ≤ 50 nM

Q: `[2H][C@@]1(N)[C@H](C)OCC12CCN(c1ncc(Sc3cccc(Cl)c3Cl)[nH]c1=O)CC2` [Example 136] was tested. Which IC50 did it give?
A: ≤ 50 nM

Q: Which IC50 does the source give for `N[C@@H]1c2cccnc2CC12CCN(c1ncc(Sc3cccc(Cl)c3Cl)[nH]c1=O)CC2` [Example 134, (S)-3-(5-amino-5,7-dihydrospiro[cyclopenta[b]pyridine-6,4′-piperidin]-1′-yl)-6-((2,3-dichlorophenyl)thio)pyrazin-2(1H)-one] here?
A: ≤ 50 nM

Q: Which IC50 does the source give for `Cn1c(N2CCC(C)(CN)C2)nc(N)c(Sc2cccc(Cl)c2Cl)c1=O` (stereo not shown) [Example 52, 6-amino-2-(3-(aminomethyl)-3-methylpyrrolidin-1-yl)-5-((2,3-dichlorophenyl)thio)-3-methylpyrimidin-4(3H)-one] here?
A: ≤ 50 nM

Q: For `N[C@@H]1c2ccccc2NC12CCN(c1ncc(Sc3cccc(Cl)c3Cl)[nH]c1=O)CC2` [Example 132, (R)-3-(3-aminospiro[indoline-2,4′-piperidin]-1′-yl)-6-((2,3-dichlorophenyl)thio)pyrazin-2 (1H)-one], which IC50 is on record?
A: ≤ 50 nM

Q: For `CN1C(=O)C(C(=O)Nc2cccc(Sc3cnc(N4CCC(C)(CN)CC4)c(=O)[nH]3)c2Cl)=C(O)C1(C)C` [Example 28, N-(3-((5-(4-(aminomethyl)-4-methylpiperidin-1-yl)-6-oxo-1,6-dihydropyrazin-2-yl)thio)-2-chlorophenyl)-4-hydroxy-1,5,5-trimethyl-2-oxo-2,5-dihydro-1H-pyrrole-3-carboxamide], which IC50 is on record?
A: ≤ 50 nM

Q: `CC1(CN)CCN(c2nc3[nH]nc(Nc4cccc(Cl)c4Cl)c3c(=O)[nH]2)CC1` [Example 34, 6-(4-(aminomethyl)-4-methylpiperidin-1-yl)-3-((2,3-dichlorophenyl)amino)-1,5-dihydro-4H-pyrazolo[3,4-d]pyrimidin-4-one] was tested. Which IC50 did it give?
A: ≤ 50 nM

Reference: patent US20230010886A1 (SUZHOU PUHE BIOPHARMA CO., LTD., priority 2019, published 2023)
